Here are results for 13 molecules from PubChem BioAssay AID328 (DTP/NCI, 2004).

For this test, the system named is BDF1 mice, P388 leukemia ip, median survival T/C. The test is described as follows: NCI In Vivo Anticancer Drug Screen. Data for tumor model P388 Leukemia (intraperitoneal) in B6D2F1 (BDF1) mice. As to conditions: endpoint: median survival time, higher = longer survival. A digest of the protocol: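 Each value expresses how treatment altered survival: treated-mouse outcome over vehicle-mouse outcome, both groups bearing the transplanted tumour.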

Where [1] appears, read: dose: 100.0 mg/kg/injection, schedule: Q01DX009 (ip), vehicle: saline with Tween-80.
Setting [2] is: dose: 200.0 mg/kg/injection, schedule: Q01DX009 (ip), vehicle: saline with Tween-80.
The mark [3] stands for this setting: dose: 50.0 mg/kg/injection, schedule: Q01DX009 (ip), vehicle: saline with Tween-80.

Values joined by “and” are separate entries in the source; they are usually repeats but may differ in a detail not shown here. Equal values may be shown once. Toxic doses and inconclusive results are not listed.

Take `CS(=O)(=O)Nc1ccc(Nc2c3ccccc3nc3cc(N)ccc23)cc1`: the T/C is, setting by setting: (dose: 0.22 mg/kg/injection, schedule: Q01DX009 (ip), vehicle: saline) 205 % of control; (dose: 0.33 mg/kg/injection, schedule: Q01DX009 (ip), vehicle: saline) 205 % of control; (dose: 0.44 mg/kg/injection, schedule: Q04DX003 (ip), vehicle: saline) 159 % of control; (dose: 0.5 mg/kg/injection, schedule: Q01DX009 (ip), vehicle: saline) 222 % of control; (dose: 0.56 mg/kg/injection, schedule: Q01DX009 (ip), vehicle: saline) 222 % of control; (dose: 0.66 mg/kg/injection, schedule: Q04DX003 (ip), vehicle: saline) 168 % of control. Besides, the T/C is, setting by setting: (dose: 0.75 mg/kg/injection, schedule: Q01DX009 (ip), vehicle: saline) 253 % of control; (dose: 0.83 mg/kg/injection, schedule: Q01DX009 (ip), vehicle: saline) 275 % of control; (dose: 1.0 mg/kg/injection, schedule: Q04DX003 (ip), vehicle: saline) 154 % of control; (dose: 1.25 mg/kg/injection, schedule: Q01DX009 (ip), vehicle: saline) 268 % of control and 271 % of control; (dose: 1.5 mg/kg/injection, schedule: Q04DX003 (ip), vehicle: saline) 190 % of control; (dose: 1.87 mg/kg/injection, schedule: Q01DX009 (ip), vehicle: saline) 111 % of control. Also, the T/C runs as follows: (dose: 2.5 mg/kg/injection, schedule: Q01DX009 (ip), vehicle: saline) 97 % of control; (dose: 2.9 mg/kg/injection, schedule: Q04DX003 (ip), vehicle: saline) 245 % of control; (dose: 4.4 mg/kg/injection, schedule: Q04DX003 (ip), vehicle: saline) 168 % of control; (dose: 6.6 mg/kg/injection, schedule: Q04DX003 (ip), vehicle: saline) 281 % of control; (dose: 10.0 mg/kg/injection, schedule: Q04DX003 (ip), vehicle: saline) 195 % of control.

For the molecule `c1cc[c]([Sn]([c]2ccccc2)([c]2ccccc2)[n]2cnc3ccccc32)cc1`, the T/C by setting is: (dose: 0.1 mg/kg/injection, schedule: Q01DX009 (ip), vehicle: Klucel (hydroxypropylcellulose) (HPC)) 90 % of control; (dose: 0.21 mg/kg/injection, schedule: Q01DX009 (ip), vehicle: Klucel (hydroxypropylcellulose) (HPC)) 90 % of control; (dose: 0.43 mg/kg/injection, schedule: Q01DX009 (ip), vehicle: Klucel (hydroxypropylcellulose) (HPC)) 90 % of control; (dose: 0.87 mg/kg/injection, schedule: Q01DX009 (ip), vehicle: Klucel (hydroxypropylcellulose) (HPC)) 90 % of control; (dose: 7.0 mg/kg/injection, schedule: Q01DX009 (ip), vehicle: Klucel (hydroxypropylcellulose) (HPC)) 115 % of control; (dose: 18.0 mg/kg/injection, schedule: Q04DX003 (ip), vehicle: Klucel (hydroxypropylcellulose) (HPC)) 100 % of control. In addition, the T/C (dose: 28.0 mg/kg/injection, schedule: Q04DX003 (ip), vehicle: Klucel (hydroxypropylcellulose) (HPC)) was 86 % of control.

On to `CC(C)Oc1ccc(Nc2ccccc2)cc1`, for which the T/C reads like this: (dose: 100.0 mg/kg/injection, schedule: Q01DX001 (ip), vehicle: Klucel (hydroxypropylcellulose) (HPC)) 100 % of control; (dose: 200.0 mg/kg/injection, schedule: Q01DX001 (ip), vehicle: Klucel (hydroxypropylcellulose) (HPC)) 100 % of control; (dose: 400.0 mg/kg/injection, schedule: Q01DX001 (ip), vehicle: Klucel (hydroxypropylcellulose) (HPC)) 91 % of control.

As for `O=c1[nH]c2ccccc2nc1CBr`, the T/C by setting is: (dose: 6.25 mg/kg/injection, schedule: Q01DX009 (ip), vehicle: saline with Tween-80) 118 % of control and 122 % of control; (dose: 7.5 mg/kg/injection, schedule: Q04DX003 (ip), vehicle: saline with Tween-80) 118 % of control; (dose: 12.5 mg/kg/injection, schedule: Q01DX009 (ip), vehicle: saline with Tween-80) 118 % of control; (dose: 12.5 mg/kg/injection, schedule: Q04DX003 (ip), vehicle: saline with Tween-80) 109 % of control; (dose: 15.0 mg/kg/injection, schedule: Q04DX003 (ip), vehicle: saline with Tween-80) 104 % of control; (dose: 25.0 mg/kg/injection, schedule: Q04DX003 (ip), vehicle: saline with Tween-80) 113 % of control. The T/C (dose: 30.0 mg/kg/injection, schedule: Q04DX003 (ip), vehicle: saline with Tween-80) was 118 % of control and the T/C (dose: 60.0 mg/kg/injection, schedule: Q04DX003 (ip), vehicle: saline with Tween-80) was 100 % of control.

In the case of `CC[C@@H]1CN(C)[C@H]2Cc3c([nH]c4ccccc34)C(=O)C[C@H]1C2C(=O)OC` (stereo not given in full), the T/C is 90 % of control (dose: 100.0 mg/kg/injection, schedule: Q01DX009 (ip), vehicle: saline sonified); 100 % of control (dose: 100.0 mg/kg/injection, schedule: Q04DX003 (ip), vehicle: saline sonified); 115 % of control (dose: 200.0 mg/kg/injection, schedule: Q01DX009 (ip), vehicle: saline sonified); 100 % of control (dose: 200.0 mg/kg/injection, schedule: Q04DX003 (ip), vehicle: saline sonified); 100 % of control (dose: 400.0 mg/kg/injection, schedule: Q01DX009 (ip), vehicle: saline sonified); 90 % of control (dose: 400.0 mg/kg/injection, schedule: Q04DX003 (ip), vehicle: saline sonified).

With `Cc1ccc2c(c1)C(c1ccccc1)(c1ccccc1)OC2=O`, the T/C under setting [1] was 100 % of control; the T/C under setting [2] is 90 % of control; the T/C (dose: 400.0 mg/kg/injection, schedule: Q01DX009 (ip), vehicle: saline with Tween-80) was 100 % of control.

With `O=C(OC1C2C=CC(C(O)O2)C1c1ccccc1)c1ccc(Cl)cc1` (stereo not given), the T/C by setting is: (dose: 100.0 mg/kg/injection, schedule: Q01DX001 (ip), vehicle: saline with Tween-80) 94 % of control; (dose: 200.0 mg/kg/injection, schedule: Q01DX001 (ip), vehicle: saline with Tween-80) 92 % of control.

For the molecule `NC(Cc1ccccc1Cl)c1nn[nH]n1` (stereo not given), the T/C reads like this: (dose: 50.0 mg/kg/injection, schedule: Q04DX002 (ip), vehicle: saline with Tween-80) 100 % of control; (dose: 200.0 mg/kg/injection, schedule: Q04DX002 (ip), vehicle: saline with Tween-80) 121 % of control.

In the case of `O=NN(CCCl)C(=O)Nc1cc2c3ccccc3ccc2c2ccccc12`, the T/C (dose: 50.0 mg/kg/injection, schedule: Q01DX009 (ip), vehicle: Klucel (hydroxypropylcellulose) (HPC)) is 121 % of control.

For the molecule `CCOC(=O)c1ccc(C=O)[nH]1`, the T/C runs as follows: under setting [3], 101 % of control; under setting [1], 99 % of control; under setting [2], 99 % of control.

Turning to `CC(N)Cc1ccc(N(C)C)cc1F` (stereo not given), the T/C is, setting by setting: (dose: 25.0 mg/kg/injection, schedule: Q01DX009 (ip), vehicle: saline with Tween-80) 96 % of control; (dose: 25.0 mg/kg/injection, schedule: Q01DX009 (ip), vehicle: saline) 103 % of control; under setting [3], 96 % of control; (dose: 50.0 mg/kg/injection, schedule: Q01DX009 (ip), vehicle: saline) 98 % of control and 107 % of control; under setting [1], 107 % of control; (dose: 100.0 mg/kg/injection, schedule: Q01DX009 (ip), vehicle: saline) 96 % of control.

For `O=c1cc(-c2cccnc2)oc2c1ccc1ccccc12`, the T/C reads like this: (dose: 12.5 mg/kg/injection, schedule: Q01DX009 (ip), vehicle: other) 89 % of control; (dose: 25.0 mg/kg/injection, schedule: Q01DX009 (ip), vehicle: other) 91 % of control; (dose: 50.0 mg/kg/injection, schedule: Q01DX009 (ip), vehicle: other) 95 % of control; (dose: 100.0 mg/kg/injection, schedule: Q01DX009 (ip), vehicle: other) 91 % of control; (dose: 200.0 mg/kg/injection, schedule: Q01DX009 (ip), vehicle: other) 87 % of control.

As for `N=C1SCc2ccc3ccccc3c21`, the T/C is, setting by setting: under setting [3], 104 % of control; under setting [1], 106 % of control.
